Experimental data reported in patent US20030162687A1, “Surfactants” (AJINOMOTO CO. INC., priority 2002, published 2003).

Key:
[1] = Particle diameter distribution by sieve classification; assay type: physicochemical
Method: Content of the 280 mesh pass particles can generally be measured according to JIS Z8815 “General procedures for sieve analysis test”. For example, the content can be determined by sieving particles through a sieve having a mesh size of 280 (53 μm) with vibration using a vibrator, and measuring weight of particles passed through the sieve. The measurement can be carried out, for example, after vibration for 5 minutes with an amplitude of 2.0 mm, and a sieve according to the JIS standard (JIS Z 8801-1) can be used as the sieve. A specific example of the sieving method is given in the examples of the specification, and accordingly, those skilled in the art can measure a content of 280 mesh pass particles by referring to the aforementioned JIS general procedures and descriptions of the examples of the specification.
In the following example, sieve classification was carried out by vibrating a sieve for 5 minutes at an amplitude of 2.0 mm using a vibrator produced by Rctsch. Powdery samples were prepared in a conventional manner by using a spray dryer with sodium N-lauroyl-L-glutamate, sodium N-myristoyl-L-glutamate, sodium N-palmoyl-L-glutamate, and sodium N-cocoyl glycinate as salts of N-long-chain acyl amino acids. Drying was performed under the following conditions.
From the samples dried by the spray drier, 280 mesh pass cut samples, 200 mesh pass cut samples, and 140 mesh pass cut samples were prepared by using sieves. […] Samples that were not subjected to sieve classification were used as controls.

[2] = Flowability by powder tester Model PT-N, Carr's flowability index method; assay type: physicochemical
Method: As for evaluation of flowability, parameters of angle of repose, degree of compaction, spatula angle, and degree of aggregation were measured by using a powder tester Model PT-N produced by HOSOKAWA MICRON CORP. based on the method for evaluating Carr's flowability index.

[3] = 140 mesh pass cut sample (106 μm)
[4] = 200 mesh pass cut sample (75 μm)
[5] = 280 mesh pass cut sample (53 μm)
[6] = control, not subjected to sieve classification

Row | Compound | Particle diameter distribution 53˜75 μm [1, 3] | Particle diameter distribution 75˜106 μm [1, 3] | Particle diameter distribution 106˜μm [1, 3] | Particle diameter distribution ˜53 μm [1, 3] | Particle diameter distribution 53˜75 μm [1, 4] | Particle diameter distribution 75˜106 μm [1, 4] | Particle diameter distribution 106˜μm [1, 4] | Particle diameter distribution ˜53 μm [1, 4] | Particle diameter distribution 53˜75 μm [1, 5] | Particle diameter distribution 75˜106 μm [1, 5] | Particle diameter distribution 106˜μm [1, 5] | Particle diameter distribution ˜53 μm [1, 5] | Particle diameter distribution 53˜75 μm [1, 6] | Particle diameter distribution 75˜106 μm [1, 6] | Particle diameter distribution 106˜μm [1, 6] | Particle diameter distribution ˜53 μm [1, 6] | Flowability: Angle of repose [2, 3] | Flowability: Degree of aggregation [2, 3] | Flowability: Degree of compaction [2, 3] | Flowability: Spatula angle [2, 3] | other results
1 | CCCCCCCCCCCC(=O)N[C@@H](CCC(=O)[O-])C(=O)[O-].[Na+].[Na+] [Na lauroylglutamate, sodium N-lauroyl-L-glutamate] | 0% | 0% | 100% | 0% | 0% | 9.6% | 90.4% | 0% | 8.3% | 8.8% | 82.9% | 0% | 7.9% | 8.4% | 79.0% | 4.7% | 29.1 ° | 34.6% | 13.7% | 29.5 ° | Flowability index [2, 3]: 76.0; Flowability index [2, 4]: 77.0; Flowability: Angle of repose [2, 4]: 30.6 °; Flowability: Degree of aggregation [2, 4]: 15.7%; Flowability: Degree of compaction [2, 4]: 12.7%; Flowability: Spatula angle [2, 4]: 31.7 °; Flowability index [2, 5]: 78.0; Flowability: Angle of repose [2, 5]: 28.6 °; Flowability: Degree of aggregation [2, 5]: 12.5%; Flowability: Degree of compaction [2, 5]: 14.0%; Flowability: Spatula angle [2, 5]: 36.7 °; Flowability index [2, 6]: 67.0; Flowability: Angle of repose [2, 6]: 33.0 °; Flowability: Degree of aggregation [2, 6]: 15.1%; Flowability: Degree of compaction [2, 6]: 18.3%; Flowability: Spatula angle [2, 6]: 46.7 °
2 | CCCCCCCCCCCCCC(=O)N[C@@H](CCC(=O)[O-])C(=O)[O-].[Na+].[Na+] [Na myristoylglutamate, sodium N-myristoyl-L-glutamate] | 0% | 0% | 100% | 0% | 0% | 15.1% | 84.9% | 0% | 6.5% | 14.1% | 79.4% | 0% | 6.0% | 13.0% | 73.3% | 7.7% | 30.8 ° | 13.5% | 11.3% | 34.8 ° | Flowability: Angle of repose [2, 4]: 30.1 °; Flowability: Degree of aggregation [2, 4]: 19.9%; Flowability: Degree of compaction [2, 4]: 11.1%; Flowability: Spatula angle [2, 4]: 37.0 °; Flowability: Angle of repose [2, 5]: 31.1 °; Flowability: Degree of aggregation [2, 5]: 15.9%; Flowability: Degree of compaction [2, 5]: 12.8%; Flowability: Spatula angle [2, 5]: 38.8 °; Flowability: Angle of repose [2, 6]: 26.6 °; Flowability: Degree of aggregation [2, 6]: 12.3%; Flowability: Degree of compaction [2, 6]: 16.5%; Flowability: Spatula angle [2, 6]: 49.3 °
3 | CCCCCCCCCCCCCCCC(=O)N[C@@H](CCC(=O)[O-])C(=O)[O-].[Na+].[Na+] [Na palmoylglutamate, sodium N-palmoyl-L-glutamate] | 0% | 0% | 100% | 0% | 0% | 14.4% | 81.3% | 0% | 4.8% | 17.8% | 77.4% | 0% | 4.5% | 16.9% | 73.3% | 5.3% | 32.0 ° | 26.4% | 10.2% | 49.2 ° | Flowability: Angle of repose [2, 4]: 37.4 °; Flowability: Degree of aggregation [2, 4]: 20.6%; Flowability: Degree of compaction [2, 4]: 12.4%; Flowability: Spatula angle [2, 4]: 53.4 °; Flowability: Angle of repose [2, 5]: 35.5 °; Flowability: Degree of aggregation [2, 5]: 21.5%; Flowability: Degree of compaction [2, 5]: 12.4%; Flowability: Spatula angle [2, 5]: 52.4 °; Flowability: Angle of repose [2, 6]: 39.3 °; Flowability: Degree of aggregation [2, 6]: 17.6%; Flowability: Degree of compaction [2, 6]: 15.6%; Flowability: Spatula angle [2, 6]: 59.0 °
4 | sodium N-cocoyl glycinate [Na cocoylglycinate] | 0% | 0% | 100% | 0% | 0% | 9.2% | 90.8% | 0% | 6.5% | 15.3% | 78.2% | 0% | 4.4% | 17.1% | 73.0% | 5.5% | 28.6 ° | 27.9% | 15.6% | 43.4 ° | Flowability: Angle of repose [2, 4]: 31.0 °; Flowability: Degree of aggregation [2, 4]: 28.1%; Flowability: Degree of compaction [2, 4]: 15.1%; Flowability: Spatula angle [2, 4]: 50.0 °; Flowability: Angle of repose [2, 5]: 33.0 °; Flowability: Degree of aggregation [2, 5]: 28.4%; Flowability: Degree of compaction [2, 5]: 14.5%; Flowability: Spatula angle [2, 5]: 56.0 °; Flowability: Angle of repose [2, 6]: 36.7 °; Flowability: Degree of aggregation [2, 6]: 32.8%; Flowability: Degree of compaction [2, 6]: 16.4%; Flowability: Spatula angle [2, 6]: 62.0 °
